Measured values published in patent US4341798A, “Amide derivatives of p-isobutyl-phenyl-propionic acids and related pharmaceutical compositions” (Laboratori Prophin S.p.A., priority 1980, dated 1982).
“And” between values parts separate entries of the source, which are not always exact repeats. Identical values can stand only once. Like-named read-outs stand apart in the source and are kept apart here.

Key:
[1] = Oedema induced by egg white in the rat (acute inflammation); assay type: in vivo; details: 100 mg/kg p.o., controls 20
Excerpt: (§1) The anti-inflammatory activity has been tested by the classic tests of the oedema induced by kaolin and egg white, which repeat two significant and different phases in the pathogenesis of the inflammatory process.
(§2) The kaolin, injected in the tibio-tarsal connection of the rat, gives place to a chronic inflammation, whereas the egg white, injected in the subplantar area of the rat, causes an acute inflammatory state.

[2] = Solubility; assay type: physicochemical
[3] = (B) Inhibition of the arthritis induced by Freund adjuvant in the rat; assay type: in vivo
Excerpt: (B) Inhibition of the arthritis induced by Freund adjuvant in the rat. (Newbould B.B. Brit. Journ. of Pharmacol. 21,127, 1963).

[4] = Oedema induced by kaolin in the rat (chronic inflammation); assay type: in vivo; details: 100 mg/kg p.o., controls 13
Excerpt: as §1, §2

[5] = Acute toxicity by intraperitoneal route in the mouse; details: in vivo, ip
[6] = in vivo; details: rat, ip
[7] = in vivo; details: rat
[8] = Acute toxicity per os in the mouse; assay type: in vivo
Excerpt: The compounds of the invention have been subjected to pharmacological tests, showing that they have a modeste or even negligible toxicity.

[9] = (D) Analgesic activity in the Flinch-jump test in the rat; assay type: in vivo
Excerpt: (D) Analgesic activity in the Flinch-jump test in the rat.
(Turner R. A. "Screening methods in Pharmacology" Accademic Press--New York 1965).

[10] = Teratogenic or embryotoxic action in the rabbit; assay type: in vivo
[11] = Therapeutical indexes (TD50 of 28 day subacute toxicity versus ED50 of tests A-D); assay type: in vivo; details: TD50 (28 days) versus ED50 of tests A-D
[12] = (A) Inhibition of the oedema induced by carragenin in the rat paw; assay type: in vivo; details: for ED50: rat paw
Excerpt: (A) Inhibition of the oedema induced by carragenin in the […]. Arch. Int. Pharmacodyn. 99,474. 1954). […] The subject oedema was induced in the rat and in the control animals caused a volume increase of the paw by 57.55%.

[13] = rat
[14] = (C) Analgesic activity on the stretching induced by acetic acid in the mouse; assay type: in vivo
Excerpt: (C) Analgesic activity on the "stretching" induced by acetic acid in the mouse.
(Fennessy M. R., Lee C. R. "Methods in Narcotic Research" Eds. Ehrenpreise Neidle Dekker--New York 1975).

[15] = Teratogenic or embryotoxic action in the mouse; assay type: in vivo
[16] = Acute toxicity by oral route in the rat; assay type: in vivo
[17] = for Mortality in 28 days: male and female rats
[18] = rat, molar basis, read-out: ED50, Freund adjuvant arthritis (molar basis)
[19] = Flinch-jump test, rat, read-out: ED50, dose causing a 50% increase of the algogenic stimulus
[20] = rat, molar basis, read-out: ED50, Flinch-jump test (molar basis)
[21] = molecular weight taken into consideration, read-out: ED50, inhibition of carragenin oedema (molar basis)
[22] = read-out: ED50, inhibition of carragenin oedema
[23] = mouse, molar basis, read-out: ED50, stretching induced by acetic acid (molar basis)
[24] = mouse, read-out: ED50, stretching induced by acetic acid

## CC(C)Cc1ccc(C(C)C(=O)Nc2cccc(C(F)(F)F)c2)cc1 (stereo not shown) [BT-03, p-isobutyl-phenyl-propionamide of metatrifluorotoluidine]
[1]
  Egg white test increase %: 10 ± 5.1%
[2]
  solubility: insoluble in water and soluble in most organic solvents
[3]; Freund adjuvant, rat, read-out: ED50, dose which causes the volume increase of the paw to be reduced by 50%
  ED50: 87 mg/kg
[3]; proportionally to the administered doses
  activity with respect to Ibuprofen: superior as regards the activity and of lower toxicity with respect to Ibuprofen
[3]; rat
  inhibition of lesions directly induced by Freund adjuvant in the injected paw: inhibit the lesions directly induced by the Freund adjuvant in the injected paw
  inhibition of the development of secundary lesions: capable of inhibiting the development of the secundary lesions
[3]; [18]
  ED50: 250 µmol/kg
[4]
  Kaolin test increase %: 7 ± 5.5%
[5]; female mice
  LD50: 1190 mg/kg
[5]; male mice
  LD50: 940 mg/kg
[6]; LD50 by intraperitoneal route in the rat, female rats
  LD50: 1760 mg/kg
[6]; LD50 by intraperitoneal route in the rat, male rats
  LD50: 1620 mg/kg
[6]; LD50 ± f.l. (P 0,05), intraperitoneal, f.l. = fiduciary limits
  LD50: 1200 ± 264 mg/kg
[7]
  TD50 at 672 h: 660 µmol/kg
[8]
  LD50 by oral route in the mouse: has not permitted as well to determine any LD50 value
[9]; [19]
  ED50: 129 mg/kg
[9]; molar basis
  activity, times greater than that of the reference substance (Ibuprofen): about 1.4 times
[9]; rat
  increase of the algogenic threshold: increase of the algogenic threshold, proportionally to the administered dose
[9]; [20]
  ED50: 370 µmol/kg
[10]
  teratogenic or embryotoxic action: have not demonstrated any teratogenic or embryotoxic action
[11]
  therapeutical index compared with Ibuprofen: A constant advantage
[12]; molar basis
  times less active than Naproxene: about 1.4 times
  times more active than Ibuprofen: 2.8 times
[12]; [21]
  ED50: 290 µmol/kg
[12]; [22]
  ED50: 103 mg/kg
[13]; in vivo
  Mortality after 7 days: 1/6 and 5/6 and 6/6
[14]; molar basis
  times more active than Ibuprofen: about 1,4 times
[14]; mouse
  inhibition of stretching: does inhibit the stretching induced by acetic acid proportionally to the administered dose
[14]; [23]
  ED50: 350 µmol/kg
[14]; [24]
  ED50: 123 mg/kg
[15]
  teratogenic or embryotoxic action: have not demonstrated any teratogenic or embryotoxic action
[16]; both by oral and by intraperitoneal route
  acute toxicity: very low acute toxicity
[16]; rat, in vivo, po, 4000 mg/kg
  LD50: > 4000 mg/kg
[17]; rat, in vivo, 200 mg/kg
  animals died during the test period: two

## CC(C)Cc1ccc(C(C)C(=O)O)cc1 (stereo not shown) [Ibuprofen, p-isobutyl-phenyl-propionic acid]
[3]; [18]
  ED50: 300 µmol/kg
[7]
  TD50 at 672 h: 590 µmol/kg
[9]; [19]
  ED50: 108 mg/kg
[9]; [20]
  ED50: 520 µmol/kg
[12]; [21]
  ED50: 820 µmol/kg
[12]; [22]
  ED50: 170 mg/kg
[13]; 250 mg/kg intraperitoneal
  Mortality after 7 days: 0/6
[13]; 360 mg/kg intraperitoneal
  Mortality after 7 days: 2/6
[13]; 520 mg/kg intraperitoneal
  Mortality after 7 days: 5/6
[13]; 750 mg/kg intraperitoneal
  Mortality after 7 days: 6/6
[14]; [23]
  ED50: 500 µmol/kg
[14]; [24]
  ED50: 105 mg/kg
[17]; 25 mg/kg
  Mortality in 28 days: 0/10
[17]; 50 mg/kg
  Mortality in 28 days: 3/10
[17]; 100 mg/kg
  Mortality in 28 days: 4/10
[17]; 200 mg/kg
  Mortality in 28 days: 5/10

## COc1ccc2cc([C@H](C)C(=O)O)ccc2c1 [Naproxene, d-2(6'-methoxy-2'-naphtyl)-propionic acid]
[12]; [21]
  ED50: 210 µmol/kg
[12]; [22]
  ED50: 47.9 mg/kg
[17]; 25 mg/kg
  Mortality in 28 days: 2/10
[17]; 50 mg/kg
  Mortality in 28 days: 6/10
[17]; 100 mg/kg
  Mortality in 28 days: 10/10

## CC(C)Cc1ccc(C(C)C(=O)NC(CCC(=O)O)C(=O)O)cc1 (stereo not shown) [glutamic amide of the p-isobutyl-phenyl-propionic acid]
[2]
  solubility: not soluble in water, diluted HCl and cyclohexane

## lysinamide of p-isobutyl-phenyl-propionic acid
[1]
  Egg white test increase %: 11 ± 5.6%
[4]
  Kaolin test increase %: 7.1 ± 5.3%
